Measurements: US11633394B2, “Substituted alkynylene compounds as anticancer agents” (Aurigene Oncology Limited, priority 2018, dated 2023)

What was measured:
Assay type in all cases: cell-based
NCI-H2122 cells = assay: Anti proliferative activity in NCI-H2122 cells by XTT assay; conditions: Homo sapiens, NCI-H2122, 192 h, H2122 cell line; for IC50: 8 days (192 hour) incubation; for viability at 30 µM: 8 days
Protocol: Example 79: Determination of Anti Proliferative Activity in NCI-H2122 Cells by XTT Assay
NCI-H2122 cells (ATCC CRL-5985) were plated at 1000 cells/well in 96 well flat clear bottom plates (Corning, Cat. No 3596) using complete RPMI-1640 media. After 24 hours, compounds of present invention were added to cells from 10 mM stocks made in DMSO (Sigma Cat no. D2650). Each concentration of compound was tested in triplicate with DMSO concentration not exceeding a final percentage of 0.3 in the cells. Complete RPMI-1640 media changed at Day 3 (72 hour) and Day 6 (144 hour) along with compounds of current invention. After 8 days (192 hour) of incubation assay terminated using 50 μl of XTT reagent (Invitrogen, Cat. no X6493). XTT reagent was made by dissolving 1 mg/mi XTT in serum free media with addition of 25 μM Phenazine methosulfate (sigma Cat. no P9625). Absorbance readings were taken in spectrophotometer at 465 nm. The data was analysed using graph pad prism software. Positive control (100% survival)=Cells in complete media with 0.3% DMSO; Negative control/blank (0% survival)=Media alone containing 0.3% DMSO.
(§1) The compounds of the present invention were screened in the above mentioned assay and the results are tabulated below.

OCI-Ly10 cells = assay: Anti proliferative activity in OCI-Ly10 cells (CTG luminescence); conditions: for inhibition at 1 µM / inhibition at 10 µM: Homo sapiens, OCI-Ly10, 72 h
Protocol: Example 80: Determination of Anti Proliferative Activity in OCI-Ly10 Cells
OCI-Ly10 cells (UHN Canada) were plated at 7500 cells/well in 96 well flat bottom plates (Corning, Cat. No CLS3904) using complete Iscove's Modified Dulbecco's Medium (IMDM. After 6 hours, compounds from the present invention were added to the cells from 10 mM stocks made in DMSO (Sigma, Cat. No D2650). Each concentration of compound was tested in triplicates with DMSO concentration not exceeding a final percentage of 0.1 in the cells. After 72 hours of incubation in CO2 incubator, CTG (Promega, Cat. No G7572) was added to the wells and Luminescence readings were taken in the plate reader. Percent inhibition in proliferation was calculated using Microsoft Excel software. Positive control (100% survival)=Cells in complete media with 0.1% DMSO; Negative control/blank (0% survival)=Media alone containing 0.1% DMSO.

NCI-H1792 cells = assay: Anti proliferative activity in NCI-H1792 cells by XTT assay; conditions: H1792 cell line; for IC50: 72 hours incubation
Protocol: Example 78: Determination of Anti Proliferative Activity in NCI-H1792 Cells by XTT Assay
NCI-H1792 cells (ATCC CRL-5895) were plated at 2000 cells/well in 96 well flat clear bottom plates (Corning, Cat. No 3596) using complete RPMI media. After 24 hours, compounds of present invention were added to cells from 20 mM stocks made in DMSO (Sigma Cat no. D2650). Each concentration of compound was tested in triplicate with DMSO concentration not exceeding a final percentage of 0.3 in the cells. After 72 hours of incubation in CO2 incubator, XTT (Invitrogen, Cat. no X6493) was added to the wells. XTT was dissolved in serum free media at 1 mg/ml and absorbance readings were taken in spectrophotometer at 465 nm. The data was analysed using graph pad prism software. Positive control (100% survival)=Cells in complete media with 0.3% DMSO; Negative control/blank (0% survival)=Media alone containing 0.3% DMSO.
as §1

[1] = Homo sapiens, NCI-H1792, 72 h, at 30 μM, 72 hours

Row | SMILES | IC50 (NCI-H2122 cells) [µM] | inhibition at 1 µM (OCI-Ly10 cells) [%] | inhibition at 10 µM (OCI-Ly10 cells; at 10 μM) [%] | viability at 30 µM (NCI-H2122 cells) [%] | further results
1 | C=CC(=O)N1CCN(C(=O)NC(C)C#Cc2ccc(Cl)c(NC(=O)C3CC3)c2)CC1 (racemic) [Example 41, 4-acryloyl-N-(4-(4-chloro-3-(cyclopropanecarboxamido)phenyl)but-3-yn-2-yl) piperazine-1-carboxamide] | 10 to 25 | 0 | 36 | – | –
2 | CC(C#Cc1ccc(Cl)c(Cl)c1)NC(=O)N1CCN(C(=O)/C=C/C(F)(F)F)CC1 (racemic) [Example 42, (E)-N-(4-(3,4-dichlorophenyl)but-3-yn-2-yl)-4-(4,4,4-trifluorobut-2-enoyl) piperazine-1-carboxamide] | < 10 | 81 | 62 | 0 | –
3 | C=CC(=O)N1CCN(C(=O)NC(C)C#Cc2ccc(Cl)c(Cl)c2)CC1=O (racemic) [Example 52, 4-acryloyl-N-(4-(3,4-dichlorophenyl)but-3-yn-2-yl)-3-oxopiperazine-1-carboxamide] | 10 to 25 | 3 | 82 | 78 | –
4 | C=CC(=O)N1CCN(C(=NC#N)NC(C)C#Cc2ccc(Cl)c(Cl)c2)CC1 (racemic) [Example 54, (E)-4-acryloyl-N′-cyano-N-(4-(3,4-dichlorophenyl)but-3-yn-2-yl) piperazine-carboximidamide] | – | 37 | 56 | – | IC50 (NCI-H1792 cells; Homo sapiens, NCI-H1792, 72 h): < 10 µM; viability at 30 µM (NCI-H1792 cells; [1]): 22%
5 | C=CC(=O)N1CCN(C(=O)NC(C)C#Cc2ccc(Cl)c(Cl)c2)CC1 (single isomer, unassigned) [Example 1a, 4-acryloyl-N-(4-(3,4-dichlorophenyl)but-3-yn-2-yl) piperazine-1-carboxamide] | – | – | – | 26 | IC50 (NCI-H1792 cells; Homo sapiens, NCI-H1792, 72 h): < 10 µM; viability at 30 µM (NCI-H1792 cells; [1]): 45%
6 | C=CC(=O)N1CCN(C(=O)NC(C)(C)C#Cc2ccc(Cl)c(Cl)c2)CC1 [Example 3] | – | 12 | 92 | – | IC50 (NCI-H1792 cells; Homo sapiens, NCI-H1792, 72 h): < 10 µM; viability at 30 µM (NCI-H1792 cells; [1]): 3%
7 | C=CC(=O)N1CCN(C(=O)NC(C)C#Cc2ccc(F)c(Cl)c2)CC1 (stereo not drawn) [Example 5] | – | 43 | 77 | – | IC50 (NCI-H1792 cells; Homo sapiens, NCI-H1792, 72 h): < 10 µM; viability at 30 µM (NCI-H1792 cells; [1]): 57%
8 | C=CC(=O)N1CCN(C(=O)NC2(C#Cc3ccc(Cl)c(Cl)c3)CC2)CC1 [Example 23] | < 10 | 48 | 67 | 21 | –
9 | C=CC(=O)N1CCN(C(=O)NC2(C#Cc3ccc(Cl)c(Cl)c3)CCCC2)CC1 [Example 24] | < 10 | 35 | 68 | – | –
10 | C=CC(=O)N1CCN(C(=O)NC(C)C#Cc2ccc(Oc3ccccc3)c(Cl)c2)CC1 (stereo not drawn) [Example 25] | 10 to 25 | 3 | 72 | 16 | –
11 | C=CC(=O)N1CC(N2CCN(C(=O)NC(C)C#Cc3ccc(Cl)c(C4(C)CC4)c3)CC2)C1 (stereo not drawn) [Example 29] | < 10 | 42 | 90 | – | –
12 | C=CC(=O)N1CCN(C(=O)NC(C)C#Cc2ccc(N(CC)CC)c(Cl)c2)CC1 (stereo not drawn) [Example 31] | 10 to 25 | – | – | 19 | –
13 | C=CC(=O)N1CCN(C(=O)NC(C)C#Cc2ccc(Cl)c(N(CC)CC)c2)CC1 (stereo not drawn) [Example 32] | 10 to 25 | – | – | 15 | –
14 | C=CC(=O)N[C@H]1CC[C@@H](NC(=O)NC(C)C#Cc2ccc(Cl)c(Cl)c2)CC1 (stereo partly drawn) [Example 33] | > 25 | – | – | – | viability at 30 µM (NCI-H1792 cells; [1]): 54%
15 | C=CC(=O)N1CCN(C(=O)NC2(C#Cc3cccc4ccccc34)CC2)CC1 [Example 35] | – | 24 | 67 | – | –
16 | C#Cc1cc(C#CC2(NC(=O)N3CCN(C(=O)C=C)CC3)CC2)ccc1Cl [Example 36] | – | 39 | 65 | – | –

Row | SMILES | IC50 (NCI-H2122 cells) [µM] | inhibition at 1 µM (OCI-Ly10 cells) [%] | inhibition at 10 µM (OCI-Ly10 cells; at 10 μM) [%] | viability at 30 µM (NCI-H2122 cells) [%] | further results
17 | CC(C#Cc1ccc(Cl)c(Cl)c1)NC(=O)N1CCN(C(=O)/C=C/C(F)(F)F)CC1 (stereo not drawn) [Example 42a, (E)-N-(4-(3,4-dichlorophenyl)but-3-yn-2-yl)-4-(4,4,4-trifluorobut-2-enoyl) piperazine-1-carboxamide] | < 10 | – | – | – | –
18 | CC(C)/C=C(\C#N)C(=O)N1CCN(C(=O)NC2(C#Cc3ccc(Cl)c(Cl)c3)CC2)CC1 [Example 45, (E)-4-(2-cyano-4-methylpent-2-enoyl)-N-(1-((3,4-dichlorophenyl)ethynyl)cyclopropyl) piperazine-1-carboxamide] | – | 0 | 44 | – | –
19 | C=CS(=O)(=O)N1CCN(C(=O)NC2(C#Cc3ccc(Cl)c(Cl)c3)CC2)CC1 [Example 51, N-(1-((3,4-dichlorophenyl)ethynyl)cyclopropyl)-4-(vinylsulfonyl) piperazine-1-carboxamide] | – | 3 | 52 | 0 | –
20 | C=CC(=O)ON=C1CCN(C(=O)NC(C)C#Cc2ccc(Cl)c(Cl)c2)CC1 (stereo not drawn) [Example 53] | 10 to 25 | – | – | 99 | –
21 | C=CCN(C(=O)C=C)C1CCN(C(=O)NC(C)C#Cc2ccc(Cl)c(Cl)c2)CC1 (stereo not drawn) [Example 58] | – | – | – | 72 | IC50 (NCI-H1792 cells; Homo sapiens, NCI-H1792, 72 h): > 25 µM
22 | CC(C#Cc1ccc(Cl)c(Cl)c1)NC(=O)N1CCC(N2C(=O)C=CC2=O)CC1 (stereo not drawn) [Example 59] | < 10 | 25 | 100 | 0 | –
23 | CC(C#Cc1ccc(Cl)c(Cl)c1)NC(=O)N1CCN(C(=O)/C(C#N)=C/N(C)C)CC1 (stereo not drawn) [Example 60] | > 25 | – | – | 90 | –
24 | CC(C#Cc1ccc(Cl)c(Cl)c1)NC(=O)N1CCN(C(=O)CC#N)CC1 (stereo not drawn) [Example 61] | > 25 | – | – | 59 | –
25 | CC(C#Cc1ccc(Cl)c(Cl)c1)NC(=O)N1CCC(n2ccnc2)CC1 (stereo not drawn) [Example 62] | 10 to 25 | – | – | 33 | –
26 | C=CC(=O)N1CCN(C(=O)NC(C)C#Cc2ccc(C#N)c(C(F)(F)F)c2)CC1 (stereo not drawn) [Example 63] | < 10 | 49 | 79 | 18 | –
27 | C=CC(=O)N1CCN(C(=O)NC(C)C#Cc2ccc(F)cc2)CC1 (stereo not drawn) [Example 64] | > 25 | – | – | 56 | –
28 | O=C(/C=C/C(F)(F)F)N1CCN(C(=O)NC2(C#Cc3ccc(Cl)c(Cl)c3)CC2)CC1 [Example 66, (E)-N-(1-((3,4-dichlorophenyl)ethynyl)cyclopropyl)-4-(4,4,4-trifluorobut-2-enoyl) piperazine-1-carboxamide] | < 10 | 75 | 73 | – | –
29 | C=CC(=O)N1CC(C(=O)N2CCN(C(=O)NC3(C#Cc4ccc(Cl)c(Cl)c4)CC3)CC2)C1 [Example 68, 4-(1-acryloylazetidine-3-carbonyl)-N-(1-((3,4-dichlorophenyl)ethynyl)cyclopropyl) piperazine-1-carboxamide] | > 25 | – | – | – | –
30 | C=CC(=O)N1CCC(C(=O)NC(C)C#Cc2ccc(Cl)c(Cl)c2)C1 (stereo not drawn) [Example 71] | – | – | 62 | – | IC50 (NCI-H1792 cells; Homo sapiens, NCI-H1792, 72 h): 10 to 25 µM; viability at 30 µM (NCI-H1792 cells; [1]): 26%; % inhibition (at 1 μM) (OCI-Ly10 cells; 72 hours): 9%
31 | C=CC(=O)N1CCC(C(=O)NC(C)C#Cc2ccc(Cl)c(Cl)c2)C1 (stereo not drawn) [Example 72] | – | – | – | – | IC50 (NCI-H1792 cells): 10 to 25 µM; % Viability (at 30 μM) (NCI-H1792 cells; at 30 μM, 72 hours): 27%; % inhibition (at 1 μM) (OCI-Ly10 cells; 72 hours): 4%; % inhibition (at 10 μM) (OCI-Ly10 cells; at 10 μM, 72 hours): 55%
32 | C=CC(=O)NC1(C(=O)NC(C)C#Cc2ccc(Cl)c(Cl)c2)CCCC1 (stereo not drawn) [Example 74] | > 25 | – | – | 60 | –
